This passage reports IC50 results from US4478826A, “Renin inhibitory peptides” (Merck & Co., Inc., priority 1982, dated 1984).

Square brackets hold non-standard residues; d marks the D form. Peptide text beside a SMILES is read from it. * marks the point of attachment. Sta = CC(C)C[C@H](N)[C@@H](O)CC(=O)O; Isobutyryl = CC(C)C(=O)*

The test has as its target T1, human renin (Homo sapiens, UniProt P00797).
T1 construct: Human plasma (lyophilized) was used as the source of human substrate and human renin; from tissue; host or cells: human plasma (lyophilized)
T1 sequence (P00797 67-406): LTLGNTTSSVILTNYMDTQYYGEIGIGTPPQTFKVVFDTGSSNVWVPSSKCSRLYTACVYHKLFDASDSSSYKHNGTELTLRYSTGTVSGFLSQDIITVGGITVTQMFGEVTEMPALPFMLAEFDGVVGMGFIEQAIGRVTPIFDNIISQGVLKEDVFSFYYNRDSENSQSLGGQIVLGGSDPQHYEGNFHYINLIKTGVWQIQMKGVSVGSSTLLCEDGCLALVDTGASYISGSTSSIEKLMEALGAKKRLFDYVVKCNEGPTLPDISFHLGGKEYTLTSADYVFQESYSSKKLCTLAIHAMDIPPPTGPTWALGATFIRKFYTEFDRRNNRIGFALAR
Description: Human renin assay (radioimmunoassay of angiotensin I, human plasma). In kind it is biochemical. The conditions noted are these: human plasma (lyophilized) as source of human substrate and human renin; read-out: I50 (M) Human renin. The text has this: This method employs a radioimmunoassay technique to measure the amount of angiotensin I product of renin cleavage of its substrate. Human plasma (lyophilized) was used as the source of human substrate and human renin. I50 values were obtained by plotting data at several inhibitor concentrations.

In the case of `CC(C)C[C@H](NC(=O)[C@H](Cc1c[nH]cn1)NC(=O)[C@H](Cc1ccccc1)NC(=O)[C@@H]1CCCN1C(=O)[C@H](Cc1c[nH]cn1)NC(=O)C(C)C)[C@@H](O)CC(=O)N[C@@H](C)C(=O)N[C@@H](Cc1ccccc1)C(N)=O` [IBU--His--Pro--Phe--His--Sta--Ala--Phe--NH2] (Isobutyryl-HPFH[Sta]AF-NH2), the IC50 amounted to 4.2e-08 M.
